Columns and labels:
[1] = test system: IL-7-dependent murine pre-B cell line 2E8; assay: Thymidine incorporation proliferation assay with IL-7-dependent cell line; type: cell-based; conditions: 2E8 cells
Experimental: Tissue culture medium consisted of RPMI 1640 supplemented with 10% heat inactivated fetal calf serum, 100 U/mL penicillin, […] streptomycin, and 2 mM L-glutamine (as well as […] 2-mercaptoethanol for the culture of 32Dp210 cells and proliferation assays).

[2] = IL-7 administration with or without castration after allogeneic HSCT, thymic cellularity; type: in vivo, mice
Text: Male C57BL/6J (B6, H-2b), C3FeB6F1/J([B6 3 C3H]F1; H-2b/k), B10.BR (H-2k), B6D2F1/J (H-2b/d), CBA/J (H-2k), Balb/c (H2-d), IL7−/− and KGF−/− mice were obtained from the Jackson Laboratory (Bar Harbor, Maine) and used in experiments when they were between 8 and 12 weeks of age. KGF−/− and IL7−/− were used between 4 and 7 months of age. HSCT protocols were approved by the Memorial Sloan-Kettering Cancer Center Institutional Animal Care and Use Committee. The BM cells were removed aseptically from femurs and tibias. Donor BM was depleted of T cells by incubation with anti-Thy-1.2 for 30 minutes at 4° C. followed by incubation with Low-TOX-M rabbit complement (Cedarlane Laboratories, Hornby, ON, Canada) for 1 hour at 37° C. Splenic T cells (for GVHD analysis) were obtained by purification over a nylon wool column followed by red cell removal with ammonium chloride red cell lysis buffer. Cells (5×10^6 BM cells with or without splenic T cells and leukemia cells) were resuspended in Dulbecco modified essential medium (Life Technologies, Grand Island, N.Y.) and transplanted by tail vein infusion (0.25 mL total volume) into lethally irradiated recipients on day 0. Prior to transplantation, on day 0, recipients received 1300 cGy total body irradiation (^137Cs source) as split dose with 3 hours between doses (to reduce gastrointestinal toxicity). Mice were housed in sterilized microisolator cages and received normal chow and autoclaved hyperchlorinated drinking water (pH 3.0).
IL-7 were either given from days 0 to 13 or 21 to 27 intraperitoneally at 10 μg/day for immune reconstitution studies. PBS was injected into control mice at the same time points.
BM cells, splenocytes or thymocytes were washed in FACS buffer (phosphate buffered saline (PBS)/2% bovine serum albumin (BSA)/0.1% azide) and 1-3×10^6 cells were incubated for 30 minutes at 4° C. with CD16/CD32 FcR block. Cells were then incubated for 30 minutes at 4° C. with primary antibodies and washed twice with FACS buffer. Where necessary, cells were incubated with conjugated Streptavidin for a further 30 minutes at 4° C. The stained cells were resuspended in FACS buffer and analyzed on a FACSCalibur™ flow cytometer (Becton Dickinson, San Jose, Calif.) with CellQuest™ software.

[3] = Chemical castration of aged female Balb/cJ mice, radioimmunoassay of plasma sex steroids; type: in vivo; conditions: 10 mg/kg s.c., 1 month slow release formulation
Experimental: To do this, aged (i.e., 2 year old) female Balb/cJ (H-2d) mice are either surgically castrated (e.g., by removing the ovaries according to standard methods), or are chemically castrated. For chemical castration, mice are injected subcutaneously with 10 mg/kg Lupron (a GnRH agonist) as a 1 month slow release formulation. Alternatively mice are injected with a GnRH antagonist (e.g., Cetrorelix or Abarelix). Confirmation of loss of sex steroids is performed by standard radioimmunoassay of plasma samples following manufacturer's instructions, and may be monitored throughout the procedure.

[4] = Sex steroid ablation therapy of the patient with an LHRH agonist (Example 6); type: in vivo, human; conditions: single dose effective for 3 months
Experimental: The patient was given sex steroid ablation therapy in the form of delivery of an LHRH agonist. This was given in the form of either Leucrin (depot injection; 22.5 mg) or Zoladex® (implant; 10.8 mg), either one as a single dose effective for 3 months. […] In some cases it is also necessary to deliver a suppresser of adrenal gland production of sex steroids. Cosudex® (5 mg/day or 50 mg/day) may also be given as one tablet per day for the duration of the sex steroid ablation therapy. Alternatively, the patient is given a GnRH antagonist, e.g., Cetrorelix or Abarelix as a subcutaneous injection

[5] = chronic administration; cited from earlier work
[6] = Chemical castration versus surgical castration after cyclophosphamide T cell depletion; type: in vivo, mice
Text: FIG. 9: Changes in thymus (open bars), spleen (gray bars) and lymph node (black bars) cell numbers following treatment with cyclophosphamide, a chemotherapy agent, and surgical or chemical castration performed on the same day. Note the rapid expansion of the thymus in castrated animals when compared to the non-castrate (cyclophosphamide alone) group at 1 and 2 weeks post-treatment. In addition, spleen and lymph node numbers of the castrate group were well increased compared to the cyclophosphamide alone group. (n=3-4 per treatment group and time point).
Old mice (e.g., 2 years old) were injected with cyclophosphamide (200 mg/kg body wt over two days) and castrated.
FIG. 9 illustrates the use of chemical castration compared to surgical castration in enhancement of T cell regeneration. […] The enhancing effects were equivalent on thymic expansion and also the recovery of spleen and lymph node. The kinetics of chemical castration are slower than surgical, that is, mice take about 3 weeks longer to decrease their circulating sex steroid levels. However, chemical castration is still as effective as surgical castration and can be considered to have an equivalent effect.

## IL-7: Recombinant human IL-7 provided by Cytheris
[1]
  proliferative effect on murine cells: equal to murine IL-7
[2]; day 14 after allo-HSCT
  thymic cellularity, combined treatment (castration and IL-7): significantly more cells
[2]; day 14 after allo-HSCT, 10 ug/day i.p. days 0-13
  thymic cellularity, IL-7 treated sham-castrated versus PBS treated sham-castrated: no difference
[2]; day 28 after allo-HSCT
  effect of IL-7 treatment combined with castration on thymic cellularity: additive effect
  thymic cellularity, IL-7 alone group versus control group: significantly higher

## CCNC(=O)[C@@H]1CCCN1C(=O)[C@H](CCCNC(=N)N)NC(=O)[C@H](CC(C)C)NC(=O)[C@@H](CC(C)C)NC(=O)[C@H](Cc1ccc(O)cc1)NC(=O)[C@H](CO)NC(=O)[C@H](Cc1c[nH]c2ccccc12)NC(=O)[C@H](Cc1c[nH]cn1)NC(=O)[C@@H]1CCC(=O)N1 [Lupron, leuprolide acetate]
[3]
  time post injection to castrate levels (<0.5 ng estrogen/ml): 3-4 weeks

## CC(C)C[C@H](NC(=O)[C@@H](COC(C)(C)C)NC(=O)[C@H](Cc1ccc(O)cc1)NC(=O)[C@H](CO)NC(=O)[C@H](Cc1c[nH]c2ccccc12)NC(=O)[C@H](Cc1cnc[nH]1)NC(=O)[C@@H]1CCC(=O)N1)C(=O)N[C@@H](CCCNC(=N)N)C(=O)N1CCC[C@H]1C(=O)NNC(N)=O [Zoladex, goserelin acetate]
[4]
  reduction of sex steroid levels: effective in reducing sex steroid levels sufficiently to reactivate the thymus
[5]
  serum testosterone levels in males: a range normally seen in surgically castrated men
  time to sustained suppression of pituitary LH after initiation of therapy: approximately three

## CCNC(=O)[C@@H]1CCCN1C(=O)[C@H](CCCN=C(N)N)NC(=O)[C@H](CC(C)C)NC(=O)[C@@H](Cc1c[nH]c2ccccc12)NC(=O)[C@H](Cc1ccc(O)cc1)NC(=O)[C@H](CO)NC(=O)[C@H](Cc1c[nH]c2ccccc12)NC(=O)[C@H](Cc1cnc[nH]1)NC(=O)[C@@H]1CCC(=O)N1 [Deslorelin]
[6]; chemical castration
  additional time to decrease circulating sex steroid levels versus surgical castration: about 3 weeks
[6]; injected for four weeks, T cell regeneration
  rate of regeneration post-cyclophosphamide treatment compared to surgical castration: comparable rate of regeneration
[6]; post-cyclophosphamide
  enhancing effects on thymic expansion and recovery of spleen and lymph node versus surgical castration: equivalent

From US20070274946A1, “Tolerance to Graft Prior to Thymic Reactivation” (Norwood Immunoloty, Ltd., priority 1999, published 2007)
